Data on 22 compounds can be found in patent US7420056B2, “Substituted bicyclic imidazo-3-ylamine compounds” (Gruenenthal GmbH, priority 2004, dated 2008).

Usually IC50 stands for the midpoint of a concentration-inhibition curve. High values mean a need for much substance, low ones inhibition by little substance. Broadly, the ED50 is the dose that gives a 50% effect, or the effect in half of the subjects.

Structures can show the parent of a compound that is named as a salt. Where two headings read alike, the source gives them in different places.

One assay concerns the target mGluR5 receptor (Sus scrofa, UniProt I3LUI7). In words: Affinity for the mGluR5 receptor: inhibition of 3[H]-MPEP binding in pig brain homogenate. The note with it: for IC50: 3[H]-MPEP binding; for inhibition at 10 µM: 10 μM compound, 5 nM 3[H]-MPEP, read-out: mGluR5 receptor inhibition of ^3[H]-MPEP binding [10 μM] in % at a concentration of the example compounds of 10 μM. An outline of the steps:
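Pig brain membranes (450 μg protein; hemispheres without medulla, cerebellum and pons) in 30 mM Hepes pH 8.0 were incubated 60 min at room temperature with 5 nM [3H]-MPEP and compound at 10 μM. Bound radioactivity was filtered and counted. Nonspecific binding was defined with 10 μM MPEP.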

The subject of another assay is Mouse. In words: Formaldehyde test in mice. Format: in vivo.
Another assay has as its system Rat. In words: Formaldehyde test (rat), phase 2. It is filed as in vivo.
For another assay, the system named is male Sprague-Dawley rats. In words: Elevated plus maze (EPM) model, anxiolytic effect. It is filed as in vivo. The note with it: rat, 60 min after p.o. administration, in words. Here is the method: 3. “Elevated Plus Maze” Model
Compounds are tested for a possible anxiolytic effect in the “elevated plus maze” (EPM) model. The tests are carried out on male Sprague-Dawley rats (200-250 g) using 2 “elevated plus mazes” (Med Associates) with electronically controlled infrared photobeams for determining the location of the animals in the maze. Each maze has 2 open and 2 closed arms and a central platform. The edges of the open arms are delimited by narrow strips. The entire maze is mounted on a metal stand.
At the beginning of a 5 minute test, each animal is individually placed on the central platform with its head in the direction of a closed arm.
The following parameters are determined or calculated and evaluated:
the number and percentage of entries into the open and closed arms,
and the percentage of time spent in the open and closed arms and on the central platform.
The data are analysed by means of single factor ANOVA (comparison of treatment groups vs. vehicle group). The significance level is set at p<0.05. All groups have a size of N=10.
The test is also described in Hogg, S. (1996) A review of the validity and variability of the elevated plus-maze as an animal model of anxiety. Pharmacol. Biochem. Behav. 54, 21-30 and Rodgers, R. J., Cole, J. C. (1994) The elevated plus-maze: pharmacology, methodology and ethology, in: Cooper, S. J., Hendrie, C. […]

Assay [1] deals with neuropathic pain in rats (cold allodynia). Nature of the assay: Neuropathic pain in rats, Bennett model (chronic constriction injury), cold allodynia. Format: in vivo. Particulars: rat, p.o., in words. The text has this:
2. Neuropathic Pain in Rats Efficacy against neuropathic pain was investigated in the Bennett model (chronic constriction injury; Bennett and Xie, 1988, Pain 33: 87-107). The corresponding parts of the literature are hereby deemed to be part of the present disclosure. Sprague-Dawley rats weighing 140-160 g are provided under Nembutal anaesthesia with four loose ligatures of the right ischial nerve. On the paw innervated by the damaged nerve, the animals develop hypersensitivity which, after one week's convalescence, is quantified over a period of approx. four weeks by means of a cold metal plate at 4° C. (cold allodynia). The animals are observed on this plate for a period of 2 min. and the number of withdrawal responses by the damaged paw is measured. […] The significance of an antiallodynic action is determined with reference to the AUC values by means of a paired T-test (*0.05≧p>0.01; **0.01≧p>0.001; ***p≦0.001; Armitage and Berry, 1987, Stat. Methods in Medical Research, London: Blackwell Scientific Publications).

Setting [2] is: ip, read-out: ED50 value, Mouse i.p.
[3] abbreviates: ip, read-out: ED50 value, Rat i.p.
[4] abbreviates: po, read-out: ED50 value, Rat p.o.

mGluR5 receptor, sequence (I3LUI7 19-1212): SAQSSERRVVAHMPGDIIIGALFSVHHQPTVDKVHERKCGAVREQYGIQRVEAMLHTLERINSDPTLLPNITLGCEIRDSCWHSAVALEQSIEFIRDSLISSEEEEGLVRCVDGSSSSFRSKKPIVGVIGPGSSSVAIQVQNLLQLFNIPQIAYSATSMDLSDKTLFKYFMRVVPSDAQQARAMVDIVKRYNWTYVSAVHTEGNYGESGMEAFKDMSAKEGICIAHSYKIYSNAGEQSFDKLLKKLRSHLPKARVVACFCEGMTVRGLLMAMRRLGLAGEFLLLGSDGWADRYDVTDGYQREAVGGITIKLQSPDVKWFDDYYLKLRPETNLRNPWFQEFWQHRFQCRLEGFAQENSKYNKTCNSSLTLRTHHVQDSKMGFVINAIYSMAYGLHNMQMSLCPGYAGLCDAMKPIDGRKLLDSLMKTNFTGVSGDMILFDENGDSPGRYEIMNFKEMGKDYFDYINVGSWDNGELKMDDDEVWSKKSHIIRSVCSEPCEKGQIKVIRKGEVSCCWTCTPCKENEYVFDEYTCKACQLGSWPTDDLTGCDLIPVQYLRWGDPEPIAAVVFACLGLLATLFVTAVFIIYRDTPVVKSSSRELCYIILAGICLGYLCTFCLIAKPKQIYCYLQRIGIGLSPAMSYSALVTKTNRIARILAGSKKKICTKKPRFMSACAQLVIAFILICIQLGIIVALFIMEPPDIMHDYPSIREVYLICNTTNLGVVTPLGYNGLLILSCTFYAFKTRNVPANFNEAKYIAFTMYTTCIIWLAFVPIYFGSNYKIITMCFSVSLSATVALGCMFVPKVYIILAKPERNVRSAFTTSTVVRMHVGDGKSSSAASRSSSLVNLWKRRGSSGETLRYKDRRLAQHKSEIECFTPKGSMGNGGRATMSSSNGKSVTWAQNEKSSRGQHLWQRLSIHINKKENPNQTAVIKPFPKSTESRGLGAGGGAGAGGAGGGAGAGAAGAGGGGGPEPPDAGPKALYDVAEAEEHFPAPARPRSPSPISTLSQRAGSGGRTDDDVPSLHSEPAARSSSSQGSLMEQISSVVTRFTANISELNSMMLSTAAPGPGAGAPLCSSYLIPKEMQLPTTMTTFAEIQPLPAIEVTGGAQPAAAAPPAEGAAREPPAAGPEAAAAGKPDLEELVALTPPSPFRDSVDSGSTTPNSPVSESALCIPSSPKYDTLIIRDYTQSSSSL

Compound `CC(C)(C)Nc1c(-c2ccc(C#Cc3ccncc3)s2)nc2cnccn12.Cl` [Example 127, N-tert-butyl-2-(5-(pyridin-4-ylethynyl)thiophen-2-yl)imidazo[1,2-a]pyrazin-3-amine hydrochloride] gave an IC50 at mGluR5 receptor of 0.0084 µM. For the same compound, the ED50 in the assay on Mouse (setting [2]) worked out at 7.7 mg/kg; with Rat (setting [3]), 2.2 mg/kg; in the assay with Rat (setting [4]) it was 5.9 mg/kg.

Turning to `CC(C)(C)Nc1c(-c2ccc(C#Cc3cccs3)s2)nc2cnccn12.Cl` [Example 110, N-tert-butyl-2-(5-(thiophen-2-ylethynyl)thiophen-2-yl)imidazo[1,2-a]pyrazin-3-amine hydrochloride], at mGluR5 receptor, the IC50 was 0.049 µM. Also, in the assay with Rat (p.o., at 21.5 mg/kg), the “% inhibition, Rat p.o.” value was 61% at 21.5.

Regarding `CC(C)(C)Nc1c(-c2ccc(C#Cc3ccccn3)s2)nc2ccccn12.Cl` [Example 192, N-tert-butyl-2-(5-(pyridin-2-ylethynyl)thiophen-2-yl)imidazo[1,2-a]pyridin-3-amine hydrochloride], in the assay with male Sprague-Dawley rats, the anxiolytic effect entry is given as “dose-dependent anxiolytic effect”. In assay [1], the antiallodynic action entry is “pronounced, long-lasting antiallodynic action”.

As for `CC(C)(C)Nc1c(-c2ccc(C#Cc3ccccn3)cc2)nc2cnccn12` [Example 116, N-tert-butyl-2-(4-(pyridin-2-ylethynyl)phenyl)imidazo[1,2-a]pyrazin-3-amine], on mGluR5 receptor, the IC50 came out at 0.076 µM. Moreover, in the assay with Mouse (setting [2]), the ED50 came out at 15.2 mg/kg.

Take `CCCCNc1c(-c2ccc(C#Cc3ccccc3)s2)nc2cnccn12` [Example 70, butyl-[2-(5-phenylethynyl-thiophen-2-yl)-imidazo[1,2-a]pyrazin-3-yl]-amine]: the half-maximal inhibitory concentration (IC50) on mGluR5 receptor worked out at 1.06 µM.

As for `CC(C)(C)Nc1c(-c2ccc(C#Cc3ccc(F)cc3)s2)nc2cnccn12` [Example 100, N-tert-butyl-2-(5-((4-fluorophenyl)ethynyl)thiophen-2-yl)imidazo[1,2-a]pyrazin-3-amine hydrochloride], the IC50 at mGluR5 receptor amounted to 0.34 µM.

As to `C(#Cc1ccccn1)c1ccc(-c2nc3cnccn3c2NC2CCCC2)cc1` [Example 240, N-cyclopentyl-2-(4-(pyridin-2-ylethynyl)phenyl)imidazo[1,2-a]pyrazin-3-amine], the inhibition at 10 µM on mGluR5 receptor was determined as 95%.

`COC(=O)c1nccn2c(NC(C)(C)C)c(-c3ccc(C#Cc4ccccc4)s3)nc12` [Example 106, methyl-3-(tert-butylamino)-2-(5-(phenylethynyl)thiophen-2-yl)imidazo[1,2-a]pyrazine-8-carboxylate] showed a concentration for half-maximal inhibition (IC50) at mGluR5 receptor of 0.21 µM.

Compound `CC(C)(C)Nc1c(-c2ccc(C#Cc3ccccc3F)s2)nc2cnccn12` [Example 105, N-tert-butyl-2-(5-((2-fluorophenyl)ethynyl)thiophen-2-yl)imidazo[1,2-a]pyrazin-3-amine hydrochloride] returned an IC50 at mGluR5 receptor of 0.15 µM.

Regarding `CC(C)(C)Nc1c(-c2ccc(C#Cc3ncccc3F)s2)nc2ccccn12` [Example 336, tert-butyl-{2-[5-(3-fluoro-pyridin-2-ylethynyl)-thiophen-2-yl]-imidazo[1,2-a]pyridin-3-yl}-amine hydrochloride], the IC50 on mGluR5 receptor was 0.0061 µM.

On to `Cc1ccc2nc(-c3ccc(C#Cc4ccccc4)s3)c(NCC3CCCCC3)n2c1` [Example 3, cyclohexylmethyl-[6-methyl-2-(5-phenylethynyl-thiophen-2-yl)-imidazo[1,2-a]pyridin-3-yl]-amine], for which, on mGluR5 receptor, the inhibition at 10 µM is 95%.

At mGluR5 receptor, `Cc1cc(C#Cc2ccccc2)sc1-c1nc2cnccn2c1NC(C)(C)C` [Example 182, N-tert-butyl-2-(3-methyl-5-(phenylethynyl)thiophen-2-yl)imidazo[1,2-a]pyrazin-3-amine hydrochloride] gave an IC50 of 8.85 µM.

As for `CC(C)(C)Nc1c(-c2ccc(C#Cc3ccccn3)s2)nc2ccc(Cl)cn12` [Example 311, N-tert-butyl-6-chloro-2-(5-(pyridin-2-ylethynyl)thiophen-2-yl)imidazo[1,2-a]pyridin-3-amine], the inhibition at 10 µM on mGluR5 receptor turned out to be 86%.

Regarding `C(#Cc1csc(-c2nc3cc(-c4ccccc4)ccn3c2NCCc2cccs2)c1)c1ccccc1` [Example 235, 7-phenyl-2-(4-(phenylethynyl)thiophen-2-yl)-N-(2-(thiophen-2-yl)ethyl)imidazo[1,2-a]pyridin-3-amine], the inhibition at 10 µM at mGluR5 receptor stood at 32%.

For `Fc1ccc(Nc2c(-c3ccc(C#Cc4ccccc4)s3)nc3cc(-c4ccccc4)ccn23)cc1Cl` [Example 33, (3-chloro-4-fluoro-phenyl)-[7-phenyl-2-(5-phenylethynyl-thiophen-2-yl)-imidazo[1,2-a]pyridin-3-yl]-amine], the inhibition at 10 µM at mGluR5 receptor came to 98%.

In turn, `CC(C)(C)Nc1c(-c2ccc(C#Cc3ccccn3)s2)nc2cnccn12.Cl` [Example 91, N-tert-butyl-2-(5-(pyridin-2-ylethynyl)thiophen-2-yl)imidazo[1,2-a]pyrazin-3-amine hydrochloride] registered an IC50 at mGluR5 receptor of 0.0054 µM. Moreover, the ED50 amounted to 1.2 mg/kg in the assay on Mouse (setting [2]); 2.3 mg/kg in the assay on Mouse (po, read-out: ED50 value, Mouse p.o.); 4.7 mg/kg in the assay on Rat (setting [3]); 7.3 mg/kg in the assay with Rat (setting [4]).

For the compound `CC(C)(C)Nc1c(-c2ccc(C#Cc3ccccc3)s2)nc2c3ccccc3ccn12` [Example 125, N-tert-butyl-2-(5-(phenylethynyl)thiophen-2-yl)imidazo[2,1-a]isoquinolin-3-amine], on mGluR5 receptor, the IC50 was 6.52 µM.

As to `Cc1nc(C#Cc2ccccc2)ccc1-c1nc2cnccn2c1NC(C)(C)C` [Example 118, N-tert-butyl-2-(2-methyl-6-(phenylethynyl)pyridin-3-yl)imidazo[1,2-a]pyrazin-3-amine], at mGluR5 receptor, the IC50 turned out to be 6.38 µM.

Regarding `Clc1ccc2nc(-c3ccc(C#Cc4ccccn4)cc3)c(NC3CCCCC3)n2c1` [Example 315, 6-chloro-N-cyclohexyl-2-(4-(pyridin-2-ylethynyl)phenyl)imidazo[1,2-a]pyridin-3-amine], the inhibition at 10 µM on mGluR5 receptor was 75%.

For `C(#Cc1csc(-c2nc3cnccn3c2NCC2CCCCC2)c1)c1ccccc1` [Example 206, N-(cyclohexylmethyl)-2-(4-(phenylethynyl)thiophen-2-yl)imidazo[1,2-a]pyrazin-3-amine], the inhibition at 10 µM at mGluR5 receptor turned out to be 63%.

On mGluR5 receptor, `CC(C)(C)Nc1c(-c2cccc(C#Cc3ccccn3)c2)nc2cnccn12` [Example 111, N-tert-butyl-2-(3-(pyridin-2-ylethynyl)phenyl)imidazo[1,2-a]pyrazin-3-amine] had an IC50 of 1.37 µM.

In the case of `C(#Cc1ccc(-c2nc3cnccn3c2NC2CCCCC2)s1)c1ccccc1` [Example 87, N-cyclohexyl-2-(5-(phenylethynyl)thiophen-2-yl)imidazo[1,2-a]pyrazin-3-amine], the inhibition at 10 µM on mGluR5 receptor came to 35%.
